Measured values taken from patent US7723473B2, “Peptide antagonists of TGF-beta family members and therapeutic uses thereof” (St. Louis University, priority 1997, dated 2010).
“Also recorded” adds a separate entry of the source.

Legend:
PAI-1 expression = PAI-1 expression in mink lung epithelial cells (Northern blot); type: cell-based; conditions: 0.25 ρM and 2.5 ρM TGF-β1
Description: RNA Analysis—Mink lung epithelial cells were grown overnight in 12-well clustered dishes in DMEM containing 10% fetal calf serum. The medium was then changed to DMEM containing 0.1% fetal calf serum and the cells were incubated with 0.25 and 2.5 ρM TGF-β1 in the presence of various concentrations of peptide β1^25 (41-65) for 2.5 hr. Total cellular RNA was extracted using RNAzol B (Tel-Test Inc.) according to the manufacturer's protocol. RNA was electrophoresed in 1.2% agarose-formaldehyde gel and transferred to Duralon-UV membranes using 10×SSC. The membranes were probed at 42° C. with a random-primed, radiolabeled 1-kb fragment from the Hind III and NeoI digests of PAI-1 cDNA and glyceraldehyde-3-phosphate dehydrogenase (“GAPDH”) cDNA. The blots were washed with 0.1×SSC containing 0.1% SDS at room temperature.

excision wounds = experiment: Pig excision wound model; type: in vivo; conditions: for deposition / immunostaining of fibronectin in excision wounds / deposition / immunostaining of type I collagen in excision wounds: post-excision day 30 (legend: day 28), immunohistochemistry
Description: Preparation of IntraSite® gel containing TGF-β peptantagonist (peptide TGF-beta antagonist). 1 ml of sterile 6 mM peptide β1^25 (41-65) in phosphate buffered saline or 1 ml of sterile phosphate buffered saline was vigorously mixed with 3 ml of IntraSite® gel using two 10 ml syringes connected with a three-way connector. […] However, 1.5 mM of peptide β1^25 (41-65) was used throughout the experiments described below.
Excision wound model. Four pigs received intramuscular injection of ketamine, strenil® and atropine as described above. Six excision injuries were generated by removing full-thickness sections of skin (3×3 cm) from standardized sites on the back of each animal using a scapel. Three rabbits, were anesthetized by intramuscular injection of ketamine (5 mg/kg). Three excision injuries were produced in each by removing full-thickness sections of skin (0.5×1 cm) from each ear. After wounds, a thin layer of IntraSite® gel containing peptide β1^25 (41-65) was applied to alternating wounds on each animal and IntraSite® gel+buffer was applied to the other half. The excision wounds were then dressed with a paraffin gauze. For pig experiments, the dressing was changed every two days for the first 10 days and twice a week for the next 30 days. For rabbit experiments, the dressing was changed for the first 3 days. Gel containing peptide β1^25 (41-65) or control gel was applied at each dressing change.
Assessment of wound healing. Wound healing was assessed by evaluating the rates of wound re-epithelization and contraction. The open wound area and the area enclosed by the normal hair bearing skin were measured using the macrophotography technique (Ref. 14). The healing rate was monitored every two days for the first 10 days and twice a week for 30 more days. Wound reepithelialization as a percent of the original wound size was calculated using the following formula:
[formula] where C=rate of wound contraction in percent; Al=wound area as measured immediately following the burn or excision injury; An=area enclosed by normal hair bearing skin.
Immunohistochemistry. The wounds were frozen immediately after being removed from animals on post-excision day 30. Serial sections were placed on polylysine-coated slides. The sections containing wound areas were stained with hematoxylin/eosin and monoclonal antibodies to type I collagen and fibronectin and biotin-conjugated rabbit anti-mouse IgG/streptavidin-conjugated horseradish peroxidase (Ref. 16). The stained sections were examined and photographed by light microscopy.

α2-macroglobulin = target: T1, α2-macroglobulin (Homo sapiens, UniProt P01023); conditions: Ref. 22; cited from earlier work
T1 sequence (P01023 24-1474): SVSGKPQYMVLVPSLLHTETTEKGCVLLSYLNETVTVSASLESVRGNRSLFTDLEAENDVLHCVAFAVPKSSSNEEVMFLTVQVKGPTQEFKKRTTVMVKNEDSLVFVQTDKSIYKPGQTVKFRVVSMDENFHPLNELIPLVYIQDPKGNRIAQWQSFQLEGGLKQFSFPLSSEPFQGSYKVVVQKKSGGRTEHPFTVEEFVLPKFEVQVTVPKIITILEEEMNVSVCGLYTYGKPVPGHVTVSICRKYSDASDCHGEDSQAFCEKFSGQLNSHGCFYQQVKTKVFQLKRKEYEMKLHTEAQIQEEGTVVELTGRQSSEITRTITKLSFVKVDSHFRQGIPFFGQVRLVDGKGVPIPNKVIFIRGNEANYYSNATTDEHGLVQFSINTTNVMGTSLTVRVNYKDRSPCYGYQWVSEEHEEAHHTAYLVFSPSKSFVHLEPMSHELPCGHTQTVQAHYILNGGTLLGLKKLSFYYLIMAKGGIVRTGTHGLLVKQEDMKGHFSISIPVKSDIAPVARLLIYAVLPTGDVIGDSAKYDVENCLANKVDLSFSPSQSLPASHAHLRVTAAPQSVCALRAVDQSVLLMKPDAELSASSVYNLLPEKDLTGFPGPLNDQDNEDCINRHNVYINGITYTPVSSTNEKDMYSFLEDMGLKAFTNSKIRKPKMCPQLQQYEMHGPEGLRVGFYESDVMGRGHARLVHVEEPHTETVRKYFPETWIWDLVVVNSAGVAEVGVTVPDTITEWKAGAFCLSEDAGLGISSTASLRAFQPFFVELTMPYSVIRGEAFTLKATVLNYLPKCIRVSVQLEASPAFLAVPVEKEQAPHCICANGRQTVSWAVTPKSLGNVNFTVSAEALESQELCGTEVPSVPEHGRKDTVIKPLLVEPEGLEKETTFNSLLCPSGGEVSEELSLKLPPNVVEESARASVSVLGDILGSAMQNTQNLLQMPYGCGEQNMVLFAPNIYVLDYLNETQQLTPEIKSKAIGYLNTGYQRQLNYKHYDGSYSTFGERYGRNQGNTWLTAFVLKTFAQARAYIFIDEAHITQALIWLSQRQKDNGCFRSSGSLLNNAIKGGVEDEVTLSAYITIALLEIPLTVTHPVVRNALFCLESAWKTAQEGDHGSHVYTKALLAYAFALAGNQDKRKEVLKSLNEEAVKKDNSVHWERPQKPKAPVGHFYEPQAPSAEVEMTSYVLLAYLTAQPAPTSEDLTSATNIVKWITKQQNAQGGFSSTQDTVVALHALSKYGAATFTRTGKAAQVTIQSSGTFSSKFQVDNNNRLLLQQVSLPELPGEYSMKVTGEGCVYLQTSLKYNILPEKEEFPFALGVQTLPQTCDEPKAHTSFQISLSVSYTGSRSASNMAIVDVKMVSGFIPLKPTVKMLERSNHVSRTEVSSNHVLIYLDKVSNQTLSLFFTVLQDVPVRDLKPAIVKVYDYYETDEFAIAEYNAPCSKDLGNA

Sequence: ANFCLGPCPYIWSLDTQYSKVLALY [peptide β1^25 (41-65)]
- blocking of PAI-1 expression stimulated by TGF-β1 (PAI-1 expression): completely blocked
- contraction of the wound (excision wounds; 1.5 mM in gel, topical): attenuated contraction
- vertical (length of the healed wound) contraction versus vehicle only (excision wounds; 1.5 mM in gel, topical): less vertical
- vertical (length of the healed wound) contraction versus vehicle only (excision wounds; 1.5 mM in gel, topical, listed as TGF-β peptantagonist): contracted vertically less; also recorded: less vertical
- deposition / immunostaining of fibronectin in excision wounds (excision wounds): diminished the deposition
- deposition / immunostaining of type I collagen in excision wounds (excision wounds): diminished the deposition
- deposition / immunostaining of fibronectin in excision wounds (excision wounds; listed as TGF-β peptantagonist): less intensity of staining
- deposition / immunostaining of type I collagen in excision wounds (excision wounds; listed as TGF-β peptantagonist): less intensity of staining
- horizontal (width of the healed wound) contraction (excision wounds; post-excision day 41): almost contracted completely
- complex formation between α2-macroglobulin and growth factors, cytokines and hormones (α2-macroglobulin): block complex formation
